From article PMC10631261 (Chemical Science, 2023)
“And” between values parts separate entries of the source, which are not always exact repeats. Identical values can stand only once. Like-named read-outs stand apart in the source and are kept apart here.

Key:
FIH = molecular target: T1, FIH (Homo sapiens, UniProt Q9NWT6); assay: SPE-MS FIH inhibition assay; assay type: biochemical; details: for reduction of FIH inhibition compared to 4: IC50 comparison with compound 4
T1 construct: made in house
Experimental: (§1) Protein production and purification
(§2) PAGE analysis) according to established procedures.
(§3) FIH, PHD2, AspH, JMJD5 and KDM4A inhibition assays
(§4) The in vitro FIH,1, 2 PHD2,1 AspH,38 JMJD536 and KDM4A39 inhibition assays were performed as […]
(§5) KDM4A). Synthetic peptide substrates were used: HIF-1α C-terminal transactivation domain fragment […]
(§6) H3Lys9 bearing three methyl groups at the N ϵ position, H3Lys4 substituted by an Ala and H3Lys14 substituted by an Ile residue) for KDM4A.39 Peptides were prepared as C-terminal amides by GL Biochem (Shanghai) Ltd. Peptide hydroxylation in the case of FIH, PHD2, AspH and JMJD5 (+16 Da mass shift) or peptide demethylation in the case of KDM4A ( -14 Da mass shift) was monitored by SPE-MS. […]

KDM4A = KDM4A (Homo sapiens, UniProt O75164); assay: biochemical; assay type: biochemical
From the text: (§7) To investigate the potential of BNS for selective FIH inhibition, its selectivity was investigated with respect to other 2OG-dependent protein oxidising enzymes, that is PHD2, Jumonji-C domain-containing protein 5 (JMJD5), aspartate/asparagine-β-hydroxylase (AspH) and KDM4A, using reported SPE-MS inhibition assays.[58,61,69,70] In addition to PHD2 and KDM4A, we included AspH and JMJD5 in our selectivity studies, because AspH, like FIH, catalyses protein aspartate- and asparagine-residue hydroxylation (although in epidermal growth factor-like domains),[71,72] and because JMJD5 is structurally closely related to FIH.[73,74]
(§8) 3. Biochemical procedures
as §1, §2, §3, §4, §5, §6

PHD2 = PHD2 (Homo sapiens, UniProt Q9GZT9); assay: biochemical
Experimental: as §8, §1, §2, §3, §4, §5, §6

AspH = AspH (Homo sapiens, UniProt Q12797); assay: biochemical
From the text: as §7, §8, §1, §2, §3, §4, §5, §6

JMJD5 = JMJD5 (Homo sapiens, UniProt Q8N371); assay: biochemical
From the text: as §7, §8, §1, §2, §3, §4, §5, §6

[1] = 0.15 μM FIH, 10.0 μM 2OG, 5.0 μM HIF-1α C-TAD788–822, SPE-MS, read-out: FIH IC50

Chain of AspH (Q12797 315-758): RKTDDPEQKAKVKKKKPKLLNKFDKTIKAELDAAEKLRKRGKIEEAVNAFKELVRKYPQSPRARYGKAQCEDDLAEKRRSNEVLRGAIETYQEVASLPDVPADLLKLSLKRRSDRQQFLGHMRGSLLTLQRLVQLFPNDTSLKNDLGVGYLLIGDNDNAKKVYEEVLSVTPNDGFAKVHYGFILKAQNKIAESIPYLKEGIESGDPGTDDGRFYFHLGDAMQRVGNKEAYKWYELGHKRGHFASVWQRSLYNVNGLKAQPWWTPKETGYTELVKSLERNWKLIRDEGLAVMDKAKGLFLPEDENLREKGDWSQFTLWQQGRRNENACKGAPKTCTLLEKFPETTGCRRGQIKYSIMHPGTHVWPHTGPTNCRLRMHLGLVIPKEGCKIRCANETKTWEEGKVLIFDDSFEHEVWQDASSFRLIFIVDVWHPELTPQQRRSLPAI
Chain of PHD2 (Q9GZT9 181-426): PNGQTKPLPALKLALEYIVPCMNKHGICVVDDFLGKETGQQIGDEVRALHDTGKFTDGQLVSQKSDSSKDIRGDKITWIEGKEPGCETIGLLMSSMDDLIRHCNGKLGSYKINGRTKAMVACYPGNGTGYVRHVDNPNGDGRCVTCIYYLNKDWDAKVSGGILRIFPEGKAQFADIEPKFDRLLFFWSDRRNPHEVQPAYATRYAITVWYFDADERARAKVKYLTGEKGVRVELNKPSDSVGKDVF
T1 sequence (Q9NWT6 whole entry): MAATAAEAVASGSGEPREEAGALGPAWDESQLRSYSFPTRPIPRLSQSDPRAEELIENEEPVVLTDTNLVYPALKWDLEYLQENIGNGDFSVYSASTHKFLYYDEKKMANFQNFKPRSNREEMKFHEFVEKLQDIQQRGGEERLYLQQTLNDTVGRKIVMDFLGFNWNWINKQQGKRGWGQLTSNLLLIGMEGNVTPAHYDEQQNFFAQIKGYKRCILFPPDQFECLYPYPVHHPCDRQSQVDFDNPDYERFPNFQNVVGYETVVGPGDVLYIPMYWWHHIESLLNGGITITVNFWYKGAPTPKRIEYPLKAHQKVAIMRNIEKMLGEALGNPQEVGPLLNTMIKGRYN
Chain of JMJD5 (Q8N371 whole entry): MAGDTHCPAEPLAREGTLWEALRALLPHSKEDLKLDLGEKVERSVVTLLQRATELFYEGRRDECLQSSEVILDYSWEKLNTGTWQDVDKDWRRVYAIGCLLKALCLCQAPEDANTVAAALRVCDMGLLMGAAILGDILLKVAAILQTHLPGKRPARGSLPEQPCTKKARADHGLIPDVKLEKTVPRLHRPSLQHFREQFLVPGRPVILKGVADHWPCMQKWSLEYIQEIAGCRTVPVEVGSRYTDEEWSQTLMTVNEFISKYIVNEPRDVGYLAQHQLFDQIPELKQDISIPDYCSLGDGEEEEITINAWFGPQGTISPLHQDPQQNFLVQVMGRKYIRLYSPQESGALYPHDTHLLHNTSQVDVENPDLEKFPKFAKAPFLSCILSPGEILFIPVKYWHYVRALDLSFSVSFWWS
Chain of KDM4A (O75164 1-359): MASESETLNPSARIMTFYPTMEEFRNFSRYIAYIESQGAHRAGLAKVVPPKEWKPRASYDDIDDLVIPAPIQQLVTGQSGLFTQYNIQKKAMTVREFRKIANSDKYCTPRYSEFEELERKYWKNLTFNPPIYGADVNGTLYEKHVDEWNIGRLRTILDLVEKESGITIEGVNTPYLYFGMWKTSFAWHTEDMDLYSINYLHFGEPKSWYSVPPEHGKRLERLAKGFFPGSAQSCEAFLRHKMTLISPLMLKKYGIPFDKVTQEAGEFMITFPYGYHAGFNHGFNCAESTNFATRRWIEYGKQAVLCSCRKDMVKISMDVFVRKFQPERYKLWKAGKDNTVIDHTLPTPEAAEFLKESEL

Compound | IC50 (FIH) [µM] | IC50 (KDM4A) [µM] | IC50 (PHD2) [µM] | IC50 (AspH) | IC50 (JMJD5; read-out: JMJD5 IC50) [µM] | also measured
COc1ccc(S(=O)(=O)N2CCC(C(=O)N=c3scc(CC(=O)O)n3O)C2)cc1 (stereo not drawn) (hydrate or solvate) [compound 36] | – | – | – | – | – | melting point: 180 to 183 °C
CC1(C(=O)/N=c2\scc(CC(=O)O)n2O)CCN(S(=O)(=O)c2ccccc2)C1 (stereo not drawn) [compound 29] | > 100 | > 100 | > 100 | > 100 µM | > 100 | –
O=C(O)Cc1csc(=NC(=O)C2CCN(S(=O)(=O)c3ccc(Cl)cc3)C2)n1O (stereo not drawn) [compound 35] | 0.46 ± 0.01 | > 100 | 9.2 ± 0.4 | 28.8 ± 8.9 µM | 37.7 ± 0.9 | –
O=C(O)Cc1cs/c(=N\C(=O)CNc2ccccc2)n1O [compound 23] | 3.2 ± 1.1 | 71.6 ± 11.8 | – | 11.1 ± 0.4 µM | 4.7 ± 1.1 | –
O=C(O)Cc1csc(=NC(=O)C2CCN(S(=O)(=O)c3ccc(C(F)(F)F)cc3)C2)n1O (stereo not drawn) (hydrate or solvate) [compound 37] | – | – | – | – | – | melting point: 183 to 185 °C
CCOC(=O)Cc1cs/c(=N\C(=O)CS(=O)(=O)c2ccccc2)n1O [compound 3] | > 100 | > 100 | > 100 | 68 ± 26.8 µM | > 100 | –
O=C(O)Cc1csc(=NC(=O)C2CCN(S(=O)(=O)c3ccc4ccccc4c3)C2)n1O (stereo not drawn) (hydrate or solvate) [compound 40] | – | – | – | – | – | melting point: 181 to 184 °C
O=C(O)Cc1cs/c(=N\C(=O)CCS(=O)(=O)c2ccccc2)n1O [compound 15] | 0.3 ± 0.05 | > 100 | 2.7 ± 0.2 | 33 ± 12.1 µM | 3.3 ± 1.5 | –
O=C(O)Cc1csc(=NC(=O)C2CCN(S(=O)(=O)c3cccc(Cl)c3)C2)n1O (stereo not drawn) (hydrate or solvate) [compound 34] | – | – | – | – | – | melting point: 178 to 182 °C
O=C(O)Cc1csc(NC(=O)CS(=O)(=O)c2ccccc2)n1 [compound 5] | > 100 | > 100 | > 100 | > 100 µM | > 100 | –
O=C(O)Cc1cs/c(=N\C(=O)CS(=O)(=O)Cc2ccc3ccccc3c2)n1O [BNS, reference compound] | 0.3 ± 0.07 | 67.4 ± 39.8 | – | 3.36 µM and 3.4 µM | 0.25 ± 0.01 | increase in FIH inhibitory activity compared with other PHD inhibitors (FIH; as judged by IC50 comparison, ESI Table S1): > 50 fold; selectivity for FIH inhibition over PHD2 inhibition (FIH; as judged by IC50 values): ~0.4 fold; IC50 (PHD2; 0.15 μM PHD2 181–426, 10.0 μM 2OG, 5.0 μM HIF-1α CODD556–574, SPE-MS): 0.11 µM
O=C(CS(=O)(=O)c1ccccc1)/N=c1\scc(Cn2ccnn2)n1O [compound 12] | > 100 | > 100 | > 100 | 83.3 ± 6.7 µM | > 100 | –
O=C(O)Cc1csc(=NC(=O)C2CCN(S(=O)(=O)c3ccc4ccccc4c3)C2)n1O (stereo not drawn) [compound 40] | 0.45 ± 0.08 | > 100 | 5.2 ± 1.1 | 40.1 ± 2.2 µM | 62.8 ± 0.4 | –
O=C(O)Cc1cs/c(=N\C(=O)CCC(=O)Nc2ccccc2)n1O [compound 18] | 6 ± 1.2 | > 100 | 2.3 ± 0.1 | 3.7 ± 1.5 µM | 8.4 ± 2.7 | –
O=C(O)CNC(=O)c1c(O)c2ccccc2n(OCC2CC2)c1=O [Desidustat, reference compound] | 41.4 ± 1.1 | – | – | – | – | –
O=C(O)CNC(=O)c1c(O)cc(CCc2ccccc2)n2ncnc12 [Enarodustat, reference compound] | > 100 | – | – | – | – | –
O=C(O)CNC(=O)c1c(O)c2cc(F)ccc2n(CCC2CC2)c1=O [GSK360A, reference compound] | – | – | – | – | – | IC50 (FIH; [1]): > 100 µM
CC1(C(=O)/N=c2\scc(CC(=O)O)n2O)CCN(S(=O)(=O)c2ccccc2)C1 (stereo not drawn) (hydrate or solvate) [compound 29] | – | – | – | – | – | melting point: 158 to 161 °C
O=C(O)c1cnn(-c2nc3cc(OC(F)(F)F)c(Cl)cc3[nH]2)c1 [JNJ-42041935, reference compound] | – | – | – | – | – | IC50 (FIH; [1]): 56.4 ± 1.6 µM
O=C(O)Cc1cs/c(=N\C(=O)COc2ccccc2)n1O [compound 22] | 0.75 ± 0.23 | > 100 | – | 20.2 ± 6.6 µM | 1.2 ± 0.2 | –
COC(=O)Cc1cs/c(=N\C(=O)CS(=O)(=O)c2ccccc2)n1O [compound 9] | > 100 | > 100 | > 100 | 96.7 ± 3.2 µM | > 100 | –

Compound | IC50 (FIH) [µM] | IC50 (KDM4A) [µM] | IC50 (PHD2) [µM] | IC50 (AspH) | IC50 (JMJD5; read-out: JMJD5 IC50) [µM] | also measured
O=C(O)Cc1csc(=NC(=O)C2CCN(S(=O)(=O)c3cccs3)C2)n1O (stereo not drawn) [compound 41] | 0.47 ± 0.07 | > 100 | 11.2 ± 2.3 | 30.3 ± 8 µM | 15.4 ± 7.1 | –
O=C(O)Cc1cs/c(=N\C(=O)C2CCCN(S(=O)(=O)c3ccccc3)C2)n1O (stereo not drawn) [compound 27] | 0.87 ± 0.04 | > 100 | 11 ± 1.6 | 49.1 ± 1.7 µM | 13.4 ± 1 | –
O=C(O)Cc1csc(=NC(=O)C2CCN(S(=O)(=O)c3ccc(C(F)(F)F)cc3)C2)n1O (stereo not drawn) [compound 37] | 0.47 ± 0.07 | > 100 | 15.2 ± 3.6 | 36 ± 0.7 µM | 63.2 ± 6.1 | –
O=C(O)CNC(=O)C1=C(O)CCN(Cc2ccc(Oc3ccc(Cl)cc3)nc2)C1=O [TP0463518, reference compound] | – | – | – | – | – | IC50 (FIH; [1]): 39.7 ± 0.6 µM
CC(C(=O)O)c1cs/c(=N\C(=O)CS(=O)(=O)c2ccccc2)n1O (stereo not drawn) [compound 6] | 61 ± 3.1 | > 100 | – | 25.6 ± 12.7 µM | – | reduction of FIH inhibition compared to 4 (FIH): > 100 fold; IC50 (JMJD5): 60.5 ± 1 µM
O=C(O)Cc1cs/c(=N\C(=O)CCNS(=O)(=O)c2ccccc2)n1O [compound 20] | 1 ± 0.1 | > 100 | 6.5 ± 1.8 | 23.3 ± 10.1 µM | 13.4 ± 6.5 | reduction of FIH inhibition compared to 4 (FIH): ~3 fold; selectivity for FIH inhibition over JMJD5 inhibition (FIH; as judged by IC50 values): ~13 fold; selectivity for FIH inhibition over PHD2 inhibition (FIH; as judged by IC50 values): ~6 fold
O=C(O)Cc1cs/c(=N\C(=O)CNC(=O)c2ccccc2)n1O [compound 16] | 1.2 ± 0.2 | > 100 | – | 2.4 ± 1.1 µM | 1.7 ± 0.3 | –
CC(=O)/N=c1\scc(CC(=O)O)n1O [compound 14] | 52.4 ± 30.4 | > 100 | > 100 | > 100 µM | 3.2 ± 0.7 | reduction of FIH inhibition compared to 4 (FIH): > 200 fold
N#CCc1cs/c(=N\C(=O)CS(=O)(=O)c2ccccc2)n1O [compound 11] | > 100 | > 100 | > 100 | > 100 µM | > 100 | –
O=C(O)Cc1cs/c(=N\C(=O)C2CCCN2S(=O)(=O)c2ccccc2)n1O (stereo not drawn) [compound 28] | 2.1 ± 1.5 | > 100 | 12.7 ± 1.8 | 24.9 ± 12 µM | 2.6 ± 0.2 | –
O=C(O)Cc1cs/c(=N\C(=O)CS(=O)(=O)c2ccccc2)n1O [compound 4] | 0.28 | > 100 | – | 9.6 ± 1.3 µM | 0.48 ± 0.01 | –
O=C(CS(=O)(=O)c1ccccc1)/N=c1\sccn1O [compound 8] | > 100 | > 100 | > 100 | > 100 µM | > 100 | –
CNC(=O)Cc1cs/c(=N\C(=O)CS(=O)(=O)c2ccccc2)n1O [compound 10] | > 100 | > 100 | > 100 | 43.6 ± 3.7 µM | 77.5 ± 23.8 | –
O=C(O)Cc1cs/c(=N\C(=O)CS(=O)(=O)Nc2ccccc2)n1O [compound 21] | 0.36 ± 0.21 | > 100 | 0.57 ± 0.18 | 0.76 ± 0.1 µM | 2.8 ± 0.9 | AspH inhibition potency relative to 4 (more potent) (AspH; IC50 comparison with compound 4): ~5 fold
O=C(O)CCc1cs/c(=N\C(=O)CS(=O)(=O)c2ccccc2)n1O [compound 13] | 2.2 ± 0.6 | > 100 | – | 47.3 ± 4.7 µM | > 100 | reduction of FIH inhibition compared to 4 (FIH): ~10 fold
Cc1s/c(=N\C(=O)CS(=O)(=O)c2ccccc2)n(O)c1CC(=O)O [compound 7] | 36.7 ± 4.9 | > 100 | – | 24.3 ± 12.3 µM | > 100 | reduction of FIH inhibition compared to 4 (FIH): > 100 fold
COc1ccc(S(=O)(=O)N2CCC(C(=O)N=c3scc(CC(=O)O)n3O)C2)cc1 (stereo not drawn) [compound 36] | 0.46 ± 0.01 | > 100 | 9.8 ± 0.5 | 36.6 ± 2.8 µM | 16 ± 6.8 | –
C[C@@H]1CN(S(=O)(=O)c2ccccc2)C[C@H]1C(=O)/N=c1\scc(CC(=O)O)n1O (relative stereo) [compound 30] | 1.7 ± 0.4 | > 100 | 71.7 ± 26.6 | > 100 µM | 25.6 ± 0.6 | –
O=C(O)Cc1csc(=NC(=O)C2CCN(S(=O)(=O)c3cccc(Cl)c3)C2)n1O (stereo not drawn) [compound 34] | 0.44 ± 0.03 | > 100 | 14.6 ± 3.2 | 35 µM | 18.5 ± 1 | –
O=C(O)Cc1csc(=NC(=O)C2CCN(S(=O)(=O)c3ccccc3Cl)C2)n1O (stereo not drawn) [compound 33] | 0.39 ± 0.04 | > 100 | 8 ± 0.2 | 30.3 ± 12.6 µM | 11.9 ± 1.8 | –
